Results published in US12396990B2, “Application of 5-hydroxytryptamine receptor 1A in preparing drug for portal hypertension” (SECOND AFFILIATED HOSPITAL, SECOND MILITARY MEDICAL …, priority 2018, dated 2025).
“Also recorded” adds a separate entry of the source. Marks after values point to notes of the source that are not given here.

Experiments:
[1] = system: isolated portal veins; assay: Contractile tension of isolated portal veins; parameters: species or system Male Wistar rats; conditions: for Effect of agonist on contractile tension of isolated portal vein: cumulative concentrations, 3 minutes each, agonist alone; for Effect of antagonist on 5-HT induced contraction of isolated portal vein: pre-incubation with antagonist for 20 minutes before 5-HT; for Effect of antagonist on 8-OH-DPAT induced contraction of isolated portal vein: pre-incubation with antagonist for 20 minutes before 8-OH-DPAT; for Effect of antagonist on F11440 induced contraction of isolated portal vein: pre-incubation with antagonist for 20 minutes before F11440
Description: Effects of the selective agonist and antagonist of HTR1A on contractile tension of isolated portal vein.
1) Male Wistar rats, weighting 140 g to 160 g, were anesthetized with inhalational isopentane through a mask. The portal veins were gently isolated from the animals and 3-5 mm of the vessel was removed under the anatomical microscope from the connective tissue, and then the vessel was placed in a cold Tyrode solution (NaCl: 148.9, KCl: 2.7, CaCl2: 1.8, NaPO4H2: 0.2, NaCO3H: 11.9, MgCl2: 1.2, glucose: 5.5 mM). Isolated portal veins were mounted in 20 ml jacketed tissue baths containing the appropriate Tyrode solution (37±0.5° C., PH=7.4) constantly bubbled with O2, by suspending them between two L-shaped stainless-steel hooks. The lower hooks were fixed and the upper hooks were attached to force-displacement transducers. Isometric force was measured and recorded using the ALC-MPA software associated with the equipment.
2) A pre-load of 1 g was applied. After mounting, isolated portal veins were equilibrated for […]. The contractile response to depolarizing potassium solution was then assessed as a test for viability. The depolarizing KCl solution (80 mM) had the same composition as the Tyrode solution used, except for the NaCl that had been completely replaced by an equimolar amount of KCl. The iPVs were washed with Tyrode solution four times and re-equilibrated for another […].
3) To evaluate the effects of 5-HT or HTR1A agonist on the contraction of iPVs, serotonin or selective agonist of HTR1A (8-OH-DPAT and F11440) was directly administrated into the tissue baths for 3 minutes in cumulatively concentrations, and the magnitude of contractile tension was recorded. To evaluate the effects of HTR1A antagonist, a pre-incubation with selective antagonist of HTR1A (WAY 100635 and NAD 299) for 20 minutes was used before increasing administration of 5-HT or HTR1A agonist.
4) 5-HT, selective agonist of HTR1A (8-OH-DPAT and F11440), and selective antagonist of HTR1A (WAY 100635 and NAD 299) were purchased from Sigma, Selleck, Tocris, and TargetMol, respectively.

[2] = system: cirrhotic portal hypertensive rats induced by carbon tetrachloride (CCl4); assay: Portal pressure in cirrhotic portal hypertensive rats induced by CCl4, agonist 8-OH-DPAT (Example 3); assay type: in vivo, Male Wistar rats; conditions: CCl4 model
Description: (§1) 1) Self-made portal pressure measuring kit, which contains 24-Gauge scalp vein set (Y type) and catheter, and high-sensitive pressure sensor, biological signal processing system (SMUP-U, Jide experimental teaching equipment factory, Shanghai, China) were used to measure the portal pressure in rats.
(§2) 2) Connect all the catheters and device, check the tightness and set zero, then open the portal pressure measuring kit, connect the catheter with the scalp vein set and high-sensitive pressure sensor, following the connection between pressure sensor and biological signal processing system. Fill all the catheters with heparin sodium saline (volume of heparin sodium and saline: 1.25 WU: 500 ml), eliminate the air bubbles and close the catheter. Then remove the needle in the scalp vein set, place it horizontally at the portal vein height of the rat (supine position). The zero point was set after opening the catheter in the biological collection system software.
3) Rats were anesthetized with inhalational isopentane through a mask. A midline abdominal incision was made, and the portal vein was cannulated with a 24-Gauge scalp vein set, connecting with a catheter filled heparin-saline, to measure PP. […]
4) After one-week treatment, portal pressure of all the rats were measured and rats were sacrificed for liver tissues. […]

[3] = system: cirrhotic portal hypertensive rats induced by thioacetamide (TAA); assay: Portal pressure in cirrhotic portal hypertensive rats induced by thioacetamide (TAA); assay type: in vivo, Male Wistar rats; conditions: TAA model; for Effect on portal pressure / Portal pressure: WAY 100635 1 mg/kg i.p.; for Effect on portal pressure: alverine 15 mg/kg by gavage, once per day; for Portal pressure: alverine 15 mg/kg p.o., means ±SEM; for Portal pressure / Effect on portal pressure compared with carvedilol: carvedilol 10 mg/kg p.o.; for Portal pressure / Change of portal pressure vs. Vehicle: once per day for one week; for Change of portal pressure vs. Vehicle: same dosing
Description: Effects of the selective antagonist of HTR1A WAY 100635, and alverine on portal pressure (PP) in cirrhotic portal hypertensive rats induced by thioacetamide (TAA).
Male Wistar rats, weighting about 140 to 160 grams (g) each, were purchased from SLAC Laboratory Animal Co., Ltd (Shanghai, China) and housed under standard animal laboratory conditions in the experimental animal center of Second Military Medical University (Shanghai, China). All animal experiments in this study were performed in accordance with protocols approved by the local Ethical Committee of the Second Military Medical University.
1) Thirty-five male Wistar rats, weighting 140 g to 160 g, were randomly divided into normal control group (N=8) and TAA group (N=27). Rats in TAA group were subjected to intraperitoneally (i.p.) injections of TAA (purchase from […]) at 200 mg/kg, which is diluted in sterile normal saline (NS; 0.9% sodium chloride), 3 times per week for 16 weeks to induce cirrhotic portal hypertension. The normal controls received injections of NS at the same timepoint. At the beginning of the 17th week, rats in TAA group were randomly divided into four groups: Vehicle group (N=7), Alverine group (N=7), WAY 100635 group (N=7), and carvedilol group (N=6).
2) Alverine (purchase from TargetMol) was diluted in the saline at a concentration of 5 mg/ml and delivered to the rats in Alverine group via gavage (p.o.). WAY 100635 (purchase from Selleck) was diluted in sterile normal saline at a concentration of 1 mg/ml and peritoneally injected (i.p.) into the rats in WAY 100635 group. Carvedilol (purchase from TargetMol) was diluted in sterile normal saline at a concentration of 1 mg/ml and delivered to the rats in carvedilol group via gavage.
3) Rats in the Alverine group, WAY 100635 group, and carvedilol group were received alverine 15 mg/kg p.o.+saline i.p., saline p.o.+WAY 100635 1 mg/kg i.p., carvedilol 10 mg/kg p.o.+saline i.p., respectively once per day for one week, while rats in vehicle group received saline p.o. and saline i.p. at the same timepoint.
4) After one-week treatment, portal pressure of all the rats were measured and rats were sacrificed for liver tissues.
as §1, §2
3) Rats were anesthetized with inhalational isopentane through a mask. A midline abdominal incision was made, and the portal vein was cannulated with a 24-Gauge scalp vein set, connecting with a catheter filled heparin-saline, to measure PP.
Data were presented as the means ±SEM. One-way analysis of variance (ANOVA) and student's t-tests were performed to compare data between two groups, and a P value of less than 0.05 was considered statistically significant.

[4] = system: cirrhotic portal hypertensive rats induced by carbon tetrachloride (CCl4); assay: Portal pressure in cirrhotic portal hypertensive rats induced by carbon tetrachloride (CCl4), antagonists (Example 2); assay type: in vivo, Male Wistar rats; conditions: CCl4 model; for Effect on portal pressure / Portal pressure: WAY 100635 1 mg/kg i.p.; for Effect on portal pressure: alverine 15 mg/kg by gavage, once per day; for Portal pressure: alverine 15 mg/kg p.o., means ±SEM; for Portal pressure / Effect on portal pressure compared with carvedilol: carvedilol 10 mg/kg p.o.; for Portal pressure / Change of portal pressure vs. Vehicle: once per day for one week; for Change of portal pressure vs. Vehicle: same dosing
Description: 1) Self-made portal pressure measuring kit, which contains 24-Gauge scalp vein set (Y type) and catheter, and high-sensitive pressure sensor, biological signal processing system (SMUP-U, Jide experimental teaching equipment factory, Shanghai, China) were used to measure the portal pressure in rats. 2) Connect all the catheters and device, check the tightness and set zero, then open the portal pressure measuring kit, connect the catheter with the scalp vein set and high-sensitive pressure sensor, following the connection between pressure sensor and biological signal processing system. Fill all the catheters with heparin sodium saline (volume of heparin sodium and saline: 1.25 WU: 500 ml), eliminate the air bubbles and close the catheter. Then remove the needle in the scalp vein set, place it horizontally at the portal vein height of the rat (supine position). The zero point was set after opening the catheter in the biological collection system software. 3) Rats were anesthetized with inhalational isopentane through a mask. A midline abdominal incision was made, and the portal vein was cannulated with a 24-Gauge scalp vein set, connecting with a catheter filled heparin-saline, to measure PP. Effects of the selective antagonist of HTR1A WAY 100635, and alverine on portal pressure (PP) in cirrhotic portal hypertensive rats induced by carbon tetrachloride (CCl4). 1) Thirty-one male Wistar rats, weighting 140 g to 160 g, were randomly divided into normal control group (N=7) and CCl4 group (N=24). Rats in CCl4 group were subjected to intraperitoneally (i.p.) injections of CCl4 at 0.25 ml/kg (diluted 1:3 v/v in olive oil) twice per week for 12 weeks to induce cirrhotic portal hypertension, while the normal controls received injections of olive oil at the same timepoint. At the beginning of the eleventh week, rats in CCl4 group were randomly divided into four groups: Vehicle group (N=7), Alverine group (N=6), WAY 100635 group (N=5), and carvedilol group (N=6). 2) Alverine was diluted in sterile normal saline at a concentration of 5 mg/ml and delivered to the rats in Alverine group via gavage (p.o.). WAY 100635 was diluted in sterile normal saline at a concentration of 1 mg/ml and peritoneally injected (i.p.) into the rats in WAY 100635 group. Carvedilol was diluted in sterile normal saline at a concentration of 1 mg/ml and delivered to the rats in carvedilol group via gavage. 3) Rats in the Alverine group, WAY 100635 group, and carvedilol group were received alverine 15 mg/kg p.o.+saline i.p., saline p.o.+WAY 100635 1 mg/kg i.p., carvedilol 10 mg/kg p.o.+saline i.p., respectively once per day for one week, while rats in vehicle group received saline p.o. and saline i.p. at the same timepoint. 4) After one-week treatment, portal pressure of all the rats were measured and rats were sacrificed for liver tissues. Similar as that in embodiment example 1.

NCCc1c[nH]c2ccc(O)cc12 [5-HT, 5-hydroxytryptamine]
Effect of agonist on contractile tension of isolated portal vein [1]: concentration-dependent contraction

CCCN(CCC)C1CCc2cccc(O)c2C1 (stereo not shown) [8-OH-DPAT]
Effect on portal pressure ([2]; 8-OH-DPAT 1 mg/kg i.p. once per day): increased; also recorded: significantly increase
Portal pressure ([2]; 8-OH-DPAT 1 mg/kg i.p. once per day for one week, means ±SEM): 11.66 ± 1.89 cmH2O
Effect of agonist on contractile tension of isolated portal vein [1]: considerably increased the contractile force of iPVs in a concentration-dependent manner

CCN(CCCc1ccccc1)CCCc1ccccc1 [Alverine]
Effect on portal pressure [3]: significantly decreased
Portal pressure [3]: 12.98 ± 1.74 cmH2O
Effect on portal pressure compared with carvedilol [3]: not significantly different
Change of portal pressure vs. Vehicle [3]: (−38.39%^#, P < 0.0001)
Effect on portal pressure [4]: significantly decrease
Portal pressure [4]: 6.94 ± 0.98 cmH2O
Effect on portal pressure compared with carvedilol [4]: not significantly different
Change of portal pressure vs. Vehicle [4]: (−41.44%*, P = 0.0065)

COc1ccccc1OCCNCC(O)COc1cccc2[nH]c3ccccc3c12 (stereo not shown) [Carvedilol]
Portal pressure [3]: 14.01 ± 4.14 cmH2O
Change of portal pressure vs. Vehicle [3]: (−33.54%^#, P = 0.0025)
Portal pressure [4]: 7.99 ± 1.37 cmH2O
Change of portal pressure vs. Vehicle [4]: (−32.58%^#, P = 0.0200)

Cn1c(=O)cnn(CCCCN2CCN(c3ncccn3)CC2)c1=O [F11440]
Effect of agonist on contractile tension of isolated portal vein [1]: considerably increased the contractile force of iPVs in a concentration-dependent manner

NC(=O)c1ccc(F)c2c1C[C@@H](N(C1CCC1)C1CCC1)CO2 [NAD 299]
Effect of antagonist on 5-HT induced contraction of isolated portal vein [1]: abrogated
Effect of antagonist on 8-OH-DPAT induced contraction of isolated portal vein [1]: almost completely inhibited
Effect of antagonist on F11440 induced contraction of isolated portal vein [1]: almost completely inhibited

COc1ccccc1N1CCN(CCN(C(=O)C2CCCCC2)c2ccccn2)CC1 [WAY 100635]
Effect on portal pressure [3]: significantly decreased
Portal pressure [3]: 13.27 ± 3.00 cmH2O
Effect on portal pressure compared with carvedilol [3]: not significantly different
Change of portal pressure vs. Vehicle [3]: (−37.04%^#, P = 0.0001)
Effect on portal pressure [4]: significantly decrease
Portal pressure [4]: 7.36 ± 2.14 cmH2O
Effect on portal pressure compared with carvedilol [4]: not significantly different
Change of portal pressure vs. Vehicle [4]: (−37.88%^#, P = 0.0125)
Effect of antagonist on 5-HT induced contraction of isolated portal vein [1]: abrogated
Effect of antagonist on 8-OH-DPAT induced contraction of isolated portal vein [1]: almost completely inhibited
Effect of antagonist on F11440 induced contraction of isolated portal vein [1]: almost completely inhibited
